In series [1] the test system is Alternaria solani. Kind of series: Example C: in vivo preventive test on Alternaria solani (tomato). Particulars: 500 ppm of active ingredient, evaluated 7 days after inoculation. The method in brief: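 Young tomato plants sprayed preventively with compound formulated in DMF/emulsifier and diluted with water, then inoculated one day later with Alternaria solani spores. Plants were held one day at about 22° C, 100% humidity, then at about 20° C, 96% humidity.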

In series [2] the test system is Botrytis cinerea. Put plainly: Example O: in vivo protective test on Botrytis cinerea (beans). To be noted: 100 ppm of active ingredient, lesion size 2 days after inoculation. On the procedure:
In Vivo Protective Test on Botrytis cinerea (Beans)
Solvent: 24.5 parts by weight of acetone • 24.5 parts by weight of N,N-dimethylacetamide
(§1) Emulsifier: 1 part by weight of alkylaryl polyglycol ether
To produce a suitable preparation of active compound, 1 part by weight of active compound is mixed with the stated amounts of solvent and emulsifier, and the concentrate is diluted with water to the desired concentration.
To test for preventive activity, young plants are sprayed with the preparation of active compound. After the spray coating has dried on, 2 small pieces of agar covered with growth of Botrytis cinerea are placed on each leaf. The inoculated plants are placed in a darkened chamber at 20° C. and a relative atmospheric humidity of 100%.
2 days after the inoculation, the size of the lesions on the leaves is evaluated. 0% means an efficacy which corresponds to that of the untreated control, while an efficacy of 100% means that no disease is observed.

The subject of series [3] is Blumeria graminis f.sp. hordei. Kind of series: Example J: in vivo preventive test on Blumeria graminis (barley). Particulars: 500 ppm of active ingredient, evaluated 7 days after inoculation. The protocol:
(§2) In Vivo Preventive Test on Blumeria graminis (Barley) Solvent: 49 parts by weight of N,N-dimethylacetamide Emulsifier: 1 part by weight of alkylaryl polyglycol ether To produce a suitable preparation of active compound, 1 part by weight of active compound or active compound combination is mixed with the stated amounts of solvent and emulsifier, and the concentrate is diluted with water to the desired concentration. To test for preventive activity, young plants are sprayed with the preparation of active compound or active compound combination at the stated rate of application. After the spray coating has been dried, the plants are dusted with spores of Blumeria graminis f.sp. hordei.

Series [4] relates to Septoria tritici. Kind of series: Example H: in vivo preventive test on Septoria tritici (wheat), N,N-dimethylacetamide/emulsifier preparation. Particulars: 500 ppm of active ingredient, evaluated 21 days after inoculation. The protocol:
as §2, with “Septoria tritici (Wheat)” for “Blumeria graminis (Barley)”, “sprayed” for “dusted”, “a spore suspension” for “spores”, “Septoria tritici. The plants remain for 48 hours in an incubation cabinet at approximately 20° C. and a relative atmospheric humidity of approximately 100% and afterwards for 60 hours at approximately 15° C. in a translucent incubation cabinet at a relative atmospheric humidity of approximately 100%.” for “Blumeria graminis f.sp. hordei.”

For series [5], the system named is Pyrenophora teres. Put plainly: Example E: in vivo preventive test on Pyrenophora teres (barley), DMF/emulsifier preparation. To be noted: 500 ppm of active ingredient, evaluated 7-9 days after inoculation. The method in brief: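 Young barley plants sprayed preventively with compound formulated in DMF/alkylaryl polyglycol ether emulsifier and diluted in water. One day later inoculated with aqueous Pyrenophora teres spore suspension, then held 48 h at 22 °C and 100% relative humidity.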

Series [6] concerns Fusarium nivale (var. majus). Kind of series: Example N: in vivo preventive test on Fusarium nivale (wheat). Particulars: 500 ppm of active ingredient, evaluated 5 days after inoculation. On the procedure:
as §2, with “Fusarium nivale (Wheat)” for “Blumeria graminis (Barley)”, “slightly injured by using a sandblast and afterwards they are sprayed” for “dusted”, “a conidia suspension” for “spores”, “Fusarium nivale (var. majus). The plants are placed in the greenhouse under a translucent incubation cabinet at a temperature of approximately 10° C. and a relative atmospheric humidity of approximately 100%.” for “Blumeria graminis f.sp. hordei.”

Series [7] deals with Venturia inaequalis. Put plainly: Example G: in vivo preventive test on Venturia inaequalis (apple scab). Particulars: 100 ppm of active ingredient, evaluated 10 days after inoculation. On the procedure: In Vivo Preventive Test on Venturia inaequalis (Apple Scab) Solvent: 24.5 parts by weight of acetone • 24.5 parts by weight of N,N-dimethylacetamide Emulsifier: 1 part by weight of alkylaryl polyglycol ether To produce a suitable preparation of active compound, 1 part by weight of active compound is mixed with the stated amounts of solvent and emulsifier, and the concentrate is diluted with water to the desired concentration. To test for preventive activity, young plants are sprayed with the preparation of active compound at the stated rate of application. After the spray coating has dried on, the plants are inoculated with an aqueous conidia suspension of the causal agent of apple scab (Venturia inaequalis) and then remain for 1 day in an incubation cabinet at approximately 20° C. and a relative atmospheric humidity of 100%. The plants are then placed in a greenhouse at approximately 21° C. and a relative atmospheric humidity of approximately 90%.

Series [8] is described as follows: log P by HPLC on reversed-phase column (C 18), EEC Directive 79831 Annex V.A8. Particulars: for logP: HPLC reversed-phase C 18, 40° C., 0.1% aqueous formic acid and acetonitrile gradient, several values = mixture of two or more isomers. The series is classed as physicochemical. The method in brief:
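Reversed-phase C18 HPLC at 40° C, 0.1% aqueous formic acid/acetonitrile linear gradient 10% to 90% acetonitrile, per EEC Directive 79831 Annex V.A8. log P obtained from retention time by linear interpolation between unbranched alkan-2-ones (C3-C16) of known log P.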

Series [9] deals with Puccinia triticina. Put plainly: Example L: in vivo preventive test on Puccinia triticina (wheat). Particulars: 500 ppm of active ingredient, evaluated 8 days after inoculation. On the procedure: In Vivo Preventive Test on Puccinia triticina (Wheat)
Solvent: 49 parts by weight of N,N-dimethylacetamide
as §1
To produce a suitable preparation of active compound, 1 part by weight of active compound or active compound combination is mixed with the stated amounts of solvent and emulsifier, and the concentrate is diluted with water to the desired concentration.
To test for preventive activity, young plants are sprayed with the preparation of active compound or active compound combination at the stated rate of application.
After the spray coating has been dried, the plants are sprayed with a spore suspension of Puccinia triticina.
The plants remain for 48 hours in an incubation cabinet at approximately 20° C. and a relative atmospheric humidity of approximately 100%.
The plants are placed in the greenhouse at a temperature of approximately 20° C. and a relative atmospheric humidity of approximately 80%.
The test is evaluated 8 days after the inoculation. 0% means an efficacy which corresponds to that of the untreated control, while an efficacy of 100% means that no disease is observed.

For series [10], the system named is Sphaerotheca fuliginea. Kind of series: Example A: in vivo preventive test on Sphaerotheca fuliginea (cucumber). Particulars: 500 ppm of active ingredient, evaluated 7 days after inoculation. The protocol: In Vivo Preventive Test on Sphaerotheca fuliginea (Cucumber) Solvent: 49 parts by weight of N,N-dimethylformamide Emulsifier: 1 part by weight of alkylarylpolyglycolether To produce a suitable preparation of active compound, 1 part by weight of active compound is mixed with the stated amounts of solvent and emulsifier, and the concentrate is diluted with water to the desired concentration. To test for preventive activity, young plants are sprayed with the preparation of active compound at the stated rate of application. One day after this treatment, the plants are inoculated with an aqueous spore suspension of Sphaerotheca fuliginea. Then the plants are placed in a greenhouse at approximately 23° C. and a relative atmospheric humidity of approximately 70%.

For series [11], the system named is Septoria tritici. Put plainly: Example I: in vivo preventive test on Septoria tritici (wheat), acetone/tween/DMSO preparation. Particulars: 500 ppm of active ingredient, grading 24 days after contamination. The method in brief:
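Scipion wheat grown at 22° C, sprayed at 1-leaf stage (10 cm); controls received acetone/tween/DMSO/water without active. Inoculated 24 h later with S. tritici spores (500 000/mL), held 72 h at 18° C, 100% RH, then 21 days at 90% RH. % efficacy vs controls scored 24 days post-inoculation.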

The subject of series [12] is Sphaerotheca fuliginea. Kind of series: Example B: in vivo preventive test on Sphaerotheca fuliginea (powdery mildew on cucurbits), gherkin plants. Particulars: 500 ppm of active ingredient, grading 12 days after contamination. The method in brief: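 Gherkin plants grown at 24 °C were sprayed with compound at the Z11 cotyledon stage; controls received acetone/tween/DMSO/water without active. 24 h later, cotyledons were inoculated by spraying with Sphaerotheca fuliginea spores (100 000 spores per mL).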

The subject of series [13] is Puccinia recondita. Kind of series: Example M: in vivo preventive test on Puccinia recondita (brown rust on wheat). To be noted: 500 ppm of active ingredient, grading 12 days after contamination. Put shortly: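 Wheat (Scipion) sprayed with compound at 1-leaf stage, grown at 22° C. Inoculated 24 h later with a spore suspension at 100 000 spores per mL. Efficacy (%) graded 12 days after inoculation against solvent-treated controls.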

For series [14], the system named is Pyricularia oryzae. The series is classed as in vivo. Particulars: Pyricularia oryzae on rice plants, preventive, 500 ppm of active ingredient, grading 6 days after contamination.
Series [15] concerns Leptosphaeria nodorum. Kind of series: Example K: in vivo preventive test on Leptosphaeria nodorum (wheat). Particulars: 500 ppm of active ingredient, evaluated 8 days after inoculation. On the procedure:
as §2, with “Leptosphaeria nodorum (Wheat)” for “Blumeria graminis (Barley)”, “sprayed” for “dusted”, “a spore suspension” for “spores”, “Leptosphaeria nodorum. The plants remain for 48 hours in an incubation cabinet at approximately 20° C. and a relative atmospheric humidity of approximately 100%.” for “Blumeria graminis f.sp. hordei.”

The logP is the decadic logarithm of the partition coefficient of the neutral form, usually between octanol and water. Consider `CC1CC(C)(C)C2CCCC(NC(=O)c3c(C(F)F)nn(C)c3F)C12` (stereo not shown) [Example 14], for which the Efficacy in series [1] amounted to 100%; in [2], 100%; in [3] it was 90%; in series [4], 75%; in series [5], 100%; in [6] it was 88%. The Efficacy was 99% in series [7], 83% in series [9] and 98% in [10]. The logP in series [8] came out at 4.29.

Turning to `Cn1nc(C(F)F)c(C(=O)N(CC2(Cc3ccccc3)CC3CCC2C3)C2CC2)c1Cl` (stereo not shown) [Example 68], the Efficacy in [11] stood at 71%; in [12], 98%; in series [13], 75%; in [14], 80%. Further, the logP in series [8] amounted to 5.06.

As for `CC(C1CC2CCC1C2)N(C(=O)c1cn(C)nc1C(F)F)C1CC1` (stereo not shown) [Example 94], the Efficacy in series [15] is 80%; in [1], 100%; in series [2], 100%; in series [3] it was 89%; in [4], 100%; in [5] it was 100%. Besides, the Efficacy in [6], in series [7] and in series [10] was 100% throughout. Moreover, the logP in [8] turned out to be 3.52.

In the case of `CC(C1CC2CCC1C2)N(C(=S)c1c(C(F)F)nn(C)c1F)C1CC1` (stereo not shown) [Example 97], the Efficacy is on record as 95% in [1]; 100% in series [2]; 100% in series [5]; 98% in series [7]; 100% in [10]. The logP in series [8] turned out to be 4.47.

The chromatographic logP is lipophilicity estimated from chromatographic retention. Lower therefore signals lower lipophilicity. In the case of `Cc1nn(C)c(F)c1C(=O)N(C1CC1)C(C)C12CC3CC(CC(C3)C1)C2` (stereo not shown) [Example 103, N-[1-(adamantan-1-yl)ethyl]-N-cyclopropyl-5-fluoro-1,3-dimethyl-1H-pyrazole-4-carboxamide], the Efficacy came out at 100% in series [1]; 99% in series [2]; 100% in [4]; 100% in series [5]; 100% in series [7]; 96% in [10]. The chromatographic logP in series [8] was found to be 4.3.

`CCc1nn(C)c(F)c1C(=O)N(C1CC1)C(C)C12CC3CC(CC(C3)C1)C2` (stereo not shown) [Example 104]: the Efficacy in [15] is 83%; in [1], 95%; in series [3] it was 78%; in series [4] it was 90%; in series [5], 95%; in [10], 96%. In addition, the logP in [8] amounted to 4.86.

As to `CC(N(C(=O)c1cn(C)nc1C(F)F)C1CC1)C12CC3CC(CC(C3)C1)C2` (stereo not shown) [Example 105], the Efficacy in [1] is on record as 95%; in [2], 100%; in series [4] it was 80%; in [5], 100%; in [7] it was 100%; in series [10], 100%. Further, the logP in series [8] was determined as 4.30.
